A short description of test [1]: Hydrogen peroxide scavenging activity (A230). The settings on record: for H2O2 scavenged: 8 μM compound; for H2O2 scavenged / H2O2 scavenging ability at higher concentrations: 1 mM H2O2, 10 min; for H2O2 scavenging ability at higher concentrations: up to 32 μM compound; for H2O2 scavenging ability: 1 mM H2O2 in PBS, 10 min. The protocol: The scavenging of H2O2 was determined by the method of Ruch et al. Carcinogenesis. 1989 June; 10(6):1003-8, using 1 mM instead of 4 mM H2O2. A 1 mM solution of H2O2 was prepared in PBS and was incubated with different concentrations of TTF, quercetin or memantine. Absorbance (A230) was determined spectrophotometrically 10 min later against blank solutions containing TTF, quercetin or memantine in PBS without H2O2.
For assessment of H2O2 scavenging activity, 1 mM H2O2 and different concentrations of TTF, quercetin or memantine were co-incubated in PBS. Optical density was measured 10 min later. The results are shown in FIG. 6 and are means±SEM of two experiments performed in duplicates (n=4). **P<0.01, ***P<0.001, compared to H2O2 in the absence of TTF.
For […] of H2O2 scavenging activity, 1 mM H2O2 and different concentrations of achillolide A, quercetin or memantine were co-incubated in PBS. Optical density was measured 10 min later. The results are means±SEM of two experiments performed in duplicates (n=4). **P<0.01, ***P<0.001, compared to H2O2 in the absence of compound Results are shown in FIG. 38.

The test system of a further test is ERK1/2. In words: Aβ25-35-induced ERK1/2 phosphorylation in N2a cells (ELISA). In kind it is cell-based. The settings on record: concomitant treatment 30-40 min. The protocol: 7. Measure the amount of total and phosphorylated ERK 1/2 in cell lysates of N2a cells, by ELISA using the PathScan total p44/42 MAPK (ERK 1/2) sandwich ELISA kit (Cell Signaling TECHNOLOGY) or the PathScan phosoho-p44/42 MAPK (Thr202/Tyr204) sandwich ELISA kit (Cell Signaling TECHNOLOGY), respectively. 8. Determine the optical density at 450 nm using a microplate reader.
N2a cells were treated concomitantly with Aβ25-35 and TTF for 30 min. Cells were extracted and the levels of phosphorylated or total ERK1/2 were determined by specific ELISA kits. The results are shown in FIG. 14 and are the mean±SEM of two different experiments (n=4).
N2a cells were treated concomitantly with Aβ25-35 and achillolide A for 40 min. Cells were extracted and the levels of phosphorylated or total ERK 1/2 were determined by specific ELISA kits. The results are the mean±SEM of two different experiments (n=4).
N2a cells were treated concomitantly with Aβ25-35 and memantine for 30 min. Cells were extracted and the levels of phosphorylated ERK1/2 were determined by a specific ELISA kit. The results are the mean±SEM of one experiment (n=2).

In another test the test system is ERK 1/2. In words: H2O2-induced ERK 1/2 phosphorylation in astrocytes (ELISA). The test is classed as cell-based, rat. As to conditions: H2O2 175 μM 40 min; for effect on H2O2-induced phosphorylation of ERK1/2: astrocytes preincubated 2 h. As to the method:
Astrocytes were treated with TTF 2 h before the addition of H2O2. Cells were lysed 40 minutes after the addition of H2O2 in lysis buffer supplied by PathScan sandwich ELISA kit (Cell Signaling TECHNOLOGY) according to the manufacturer's protocol. Protein concentrations in cell lysates were determined by Bradford reagent (Bio-Rad, Hercules, Calif.), and equal amounts of proteins were subjected to ELISA. To measure the amount of total and phosphoSAPK/JNK in cell lysates of astrocytes, ELISA was performed according to the manufacturer's protocol using the PathScan total SAPK/JNK sandwich ELISA kit (Cell Signaling TECHNOLOGY) and the PathScan phospho-SAPK/JNK (Thr183/Tyr185) sandwich ELISA kit (Cell Signaling TECHNOLOGY), respectively. To measure the amount of total and phospho-ERK 1/2 (i.e. phospho-p44/42 MAPK) in cell lysates of astrocytes, ELISA was performed according to the manufacturer's protocol using the PathScan total p44/42 MAPK (ERK 1/2) sandwich ELISA kit (Cell Signaling TECHNOLOGY) and the PathScan phospho-p44/42 MAPK (Thr202/Tyr204) sandwich ELISA kit (Cell Signaling TECHNOLOGY), respectively. To measure the amount of total and phospho-MEK1 in cell lysates of astrocytes, ELISA was performed according to the manufacturer's protocol using the PathScan total MEK1 sandwich ELISA kit (Cell Signaling TECHNOLOGY) and the PathScan phospho-MEK1 (Ser217/221) sandwich ELISA kit (Cell Signaling TECHNOLOGY), respectively. […] The optical density was determined at 450 nm using a microplate reader.
1. […] Determine the optical density at 450 nm using a microplate reader.
Astrocytes were treated with 175 μM of H2O2 for 40 min following preincubation with TTF for 2 h. The levels of phosphorylated and total SAPK/JNK (FIG. 3A), MEK1 (FIG. 3B) and ERK 1/2 (FIG. 3C) were measured by ELISA. […]

Take `COc1cc(-c2oc3cc(OC)c(OC)c(O)c3c(=O)c2O)ccc1O` [TTF, 3,5,4′-trihydroxy-6,7,3′-trimethoxyflavone]: in test [1], the H2O2 scavenged is 7% and the “H2O2 scavenging ability at higher concentrations” value was no more than 7%. In addition, in the test on ERK1/2, the “effect on Aβ25-35-induced phosphorylation of ERK1/2” value is “significantly inhibited”. Also, the “inhibition of H2O2-induced phosphorylation of ERK 1/2” value with ERK 1/2 (astrocytes pretreated 2 h, total ERK 1/2 not affected) was found to be 30%.

For `O=c1c(O)c(-c2ccc(O)c(O)c2)oc2cc(O)cc(O)c12` [quercetin, 3,3′,4′,5,7-Pentahydroxyflavone, reference compound], in test [1], the H2O2 scavenged came to 57% and the “H2O2 scavenging ability at higher concentrations” value was 88%.

As to `CC12CC3CC(C)(C1)CC(N)(C3)C2` [memantine, reference compound], in test [1], the H2O2 scavenging ability entry is given as “did not have any scavenging ability”. Moreover, in the test on ERK1/2, the “effect on Aβ25-35-induced phosphorylation of ERK1/2” value is “does not affect”. Further, the “effect on H2O2-induced phosphorylation of ERK1/2” value in the test with ERK 1/2 is on record as “inhibitory effect”.

With `C=C1CCC2=C(CO)C(=O)O[C@H]2/C=C(\C)[C@H](OC(C)=O)CC1=O` [achillolide A], the H2O2 scavenging ability entry in test [1] was “hydrogen peroxide scavenging ability”. The “effect on Aβ25-35-induced phosphorylation of ERK1/2” value in the test on ERK1/2 is given as “significantly decreased”. Besides, in the test with ERK 1/2, the “effect on H2O2-induced phosphorylation of ERK1/2” value is “inhibitory effect”.

The values above are taken from patent US11752125B2, “Anti-neuroinflammatory and protective compounds in Achillea fragrantissima” (THE STATE OF ISRAEL MINISTRY OF AGRICULTURE & RURAL …, priority 2013, dated 2023).
